From PubChem BioAssay (NCI)
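Protocol summary: plate cells (96-well), add compound at 5 concentrations, incubate 48 h, interpolate endpoints linearly. GI50 = concentration required for 50% inhibition of growth. TGI marks complete inhibition of growth.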

How the values were obtained:
Assay in all cases: inhibition of tumour cell growth, NCI panel, 48 h
[1] = test system: SR leukemia
[2] = test system: NCI-H460 lung
[3] = test system: SN12C renal
[4] = test system: RPMI-8226 leukemia
[5] = test system: U251 CNS
[6] = test system: SK-OV-3 ovarian
[7] = test system: COLO 205 colon
[8] = test system: RXF 393 renal
[9] = test system: OVCAR-5 ovarian
[10] = test system: M14 melanoma
[11] = test system: EKVX NSCLC
[12] = test system: HCC-2998 colon
[13] = test system: TK-10 renal
[14] = test system: NCI-H226 lung
[15] = test system: K-562 leukemia
[16] = test system: 786-0 renal
[17] = test system: NCI-H522 lung
[18] = test system: HL-60(TB) leukemia
[19] = test system: MDA-MB-435
[20] = test system: HOP-62 NSCLC
[21] = test system: OVCAR-8 ovarian
[22] = test system: BT-549 breast
[23] = test system: OVCAR-4 ovarian
[24] = test system: UACC-62 melanoma
[25] = test system: UACC-257 melanoma
[26] = test system: A549 NSCLC
[27] = test system: SF-539 CNS
[28] = test system: HS 578T breast
[29] = test system: SK-MEL-5 melanoma
[30] = test system: IGROV1 ovarian
[31] = test system: MALME-3M melanoma
[32] = test system: SF-268 CNS
[33] = test system: ACHN renal
[34] = test system: OVCAR-3 ovarian
[35] = test system: NCI/ADR-RES ovarian
[36] = test system: DU-145 prostate
[37] = test system: SW-620 colon
[38] = test system: CAKI-1 renal
[39] = test system: A498 renal
[40] = test system: NCI-H23 lung
[41] = test system: HOP-92 NSCLC
[42] = test system: LOX IMVI melanoma
[43] = test system: SK-MEL-28 melanoma
[44] = test system: PC-3 prostate
[45] = test system: CCRF-CEM leukemia
[46] = test system: HCT-116 colon
[47] = test system: T-47D breast
[48] = test system: KM12 colon
[49] = test system: MOLT-4 leukemia
[50] = test system: HCT-15 colon
[51] = test system: MDA-MB-468 breast
[52] = test system: MCF7 breast
[53] = test system: SNB-19 CNS
[54] = test system: SF-295 CNS
[55] = test system: HT29 colon

c1n[nH]cc1-c1nc2ccc3[nH]ncc3c2c2c1CC1(CC2)COC1
GI50 [1]: 3.36 µM
TGI [1]: 16.9 µM
GI50 [2]: 17.1 µM
TGI [2]: 35.9 µM
GI50 [3]: 13.9 µM
TGI [3]: 38 µM
GI50 [4]: 21.3 µM
TGI [4]: 68 µM
GI50 [5]: 17.7 µM
TGI [5]: > 100 µM
GI50 [6]: 5.9 µM
TGI [6]: 34.3 µM
GI50 [7]: 6.13 µM
TGI [7]: 21.2 µM
GI50 [8]: 4.52 µM
TGI [8]: 17.6 µM
GI50 [9]: 25.6 µM
TGI [9]: 77.7 µM
GI50 [10]: 12.9 µM
TGI [10]: 28 µM
GI50 [11]: 22.4 µM
TGI [11]: 83.6 µM
GI50 [12]: 15.5 µM
TGI [12]: 40.6 µM
GI50 [13]: 15 µM
TGI [13]: 67.6 µM
GI50 [14]: 16 µM
TGI [14]: 37.1 µM
GI50 [15]: 13.7 µM
TGI [15]: > 100 µM
GI50 [16]: 13.4 µM
TGI [16]: 32.7 µM
GI50 [17]: 3.43 µM
TGI [17]: 17.1 µM
GI50 [18]: 13.6 µM
TGI [18]: 39.3 µM
GI50 [19]: 14.4 µM
TGI [19]: 32.4 µM
GI50 [20]: 18.2 µM
TGI [20]: 47.3 µM
GI50 [21]: 16.3 µM
TGI [21]: 35.5 µM
GI50 [22]: 4.09 µM
TGI [22]: 16.6 µM
GI50 [23]: 25 µM
TGI [23]: 70.4 µM
GI50 [24]: 5.76 µM
TGI [24]: 18.7 µM
GI50 [25]: 17 µM
TGI [25]: 39 µM
GI50 [26]: 27.8 µM
TGI [26]: > 100 µM
GI50 [27]: 12.2 µM
TGI [27]: 25.5 µM
GI50 [28]: 8.53 µM
TGI [28]: 39.3 µM
GI50 [29]: 16.3 µM
TGI [29]: 30.1 µM
GI50 [30]: 19.3 µM
TGI [30]: 57.3 µM
GI50 [31]: 15.7 µM
TGI [31]: 30.1 µM
GI50 [32]: 16.2 µM
TGI [32]: 40.2 µM
GI50 [33]: 16.8 µM
TGI [33]: > 100 µM
GI50 [34]: 13.7 µM
TGI [34]: 59.2 µM
GI50 [35]: > 100 µM
TGI [35]: > 100 µM
GI50 [36]: 26.2 µM
TGI [36]: 95.5 µM
GI50 [37]: 4.98 µM
TGI [37]: 52.6 µM
GI50 [38]: 19.2 µM
TGI [38]: 86.5 µM
GI50 [39]: 15 µM
TGI [39]: 30.9 µM
GI50 [40]: 15.1 µM
TGI [40]: 32.7 µM
GI50 [41]: 23.1 µM
TGI [41]: 63.1 µM
GI50 [42]: 11.3 µM
TGI [42]: 24.6 µM
GI50 [43]: 12.9 µM
TGI [43]: 27.7 µM
GI50 [44]: 26.5 µM
TGI [44]: > 100 µM
GI50 [45]: 29.9 µM
TGI [45]: > 100 µM
GI50 [46]: 6.02 µM
TGI [46]: 37.7 µM
GI50 [47]: 12.7 µM
TGI [47]: 57.3 µM
GI50 [48]: 22.3 µM
TGI [48]: 51.8 µM
GI50 [49]: 15.5 µM
TGI [49]: 48.2 µM
GI50 [50]: 23.2 µM
TGI [50]: > 100 µM
GI50 [51]: 3.53 µM
TGI [51]: 13 µM
GI50 [52]: 20.4 µM
TGI [52]: 69.5 µM
GI50 [53]: 17.3 µM
TGI [53]: 68.1 µM
GI50 [54]: 23.4 µM
TGI [54]: 58.4 µM
GI50 [55]: 26.3 µM
TGI [55]: > 100 µM
